Test results reported in patent publication US5597829A, “Lactone stable formulation of camptothecin and methods for uses thereof” (priority 1994, dated 1997).
“Also recorded” adds a separate entry of the source. Like-named read-outs stand apart in the source and are kept apart here.

Assays:
LD1210 leukemia = conditions: 10-100 mg/kg intraperitoneally; cited from earlier work
[1] = similar solutions; cited from earlier work
[2] = system: topoisomerase I in P388 cells; conditions: cited from earlier work
MOLT3 cells = conditions: cited from earlier work
P388 tumor = conditions: intermittent bolus (days 1, 5, and 9), i.p.; cited from earlier work
[3] = cited from earlier work
[4] = cited from earlier work; remark: listed apart in the source
[5] = Phase I pharmacokinetics: conversion of CPT-11 into HECPT; assay type: in vivo, human; conditions: per/mg basis, from mean peak plasma concentrations
[6] = cited from earlier work; remark: listed apart in the source
[7] = system: xenografts of human tumors; conditions: nude mice; cited from earlier work
[8] = mice; cited from earlier work
[9] = cited from earlier work; remark: listed apart in the source
[10] = Masuda et al, refractory or relapsed small cell lung cancer, 100 mg/m^2 weekly
[11] = Negoro et al, small cell lung cancer, 100 mg/m^2 weekly, 41 pts
[12] = Shimada et al, colon cancer, 100 mg/m^2 /week or 150 mg/m^2 /Q 2 wks
[13] = Takeuchi et al, cervical cancer, 69 pts

CCc1c2c(nc3ccccc13)-c1cc3c(c(=O)n1C2)COC(=O)[C@]3(O)CC [ECPT, 7-ethyl camptothecin]
T/C (treated/control) ratios (LD1210 leukemia): inferior to that of CPT-11 administration under the same conditions

COc1cc([C@@H]2c3cc4c(cc3[C@@H](O[C@@H]3O[C@@H]5CO[C@@H](C)O[C@H]5[C@H](O)[C@H]3O)[C@H]3COC(=O)[C@H]23)OCO4)cc(OC)c1O [etoposide]
bioavailability following oral administration relative to intravenous [1]: substantially equivalent

CCc1c2c(nc3ccc(O)cc13)-c1cc3c(c(=O)n1C2)COC(=O)[C@]3(O)CC [HECPT, 10-hydroxy 7-ethyl camptothecin]
T/C (treated/control) ratios (LD1210 leukemia): inferior to that of CPT-11 administration under the same conditions
greater inhibitory activity than CPT-11 against topoisomerase I [2]: 3600 fold
more potent than CPT-11 in generating single-strand DNA breaks (MOLT3 cells): approximately 1000 fold
anti-tumor activity compared to CPT-11 (P388 tumor): little anti-tumor activity compared to CPT-11
correlation of HECPT pharmacokinetics with dose or of CPT-11 pharmacokinetics with toxicity ([3]; human subjects): lack of correlation
overall fractional concentration of the lactone species over dose range ([4]; in vivo, iv): fairly constant

CCc1c2c(nc3ccc(OC(=O)N4CCC(N5CCCCC5)CC4)cc13)-c1cc3c(c(=O)n1C2)COC(=O)[C@]3(O)CC [CPT-11, 7-Ethyl-10-[4-(1-piperidino)-1-piperidino]Carbonyloxy-Camptothecin]
administered CPT-11 converted into HECPT [5]: 1.5% to 9
Toxicity (* dose limiting) ([6]; Clavel et al, 90 min QDx3 Q21 days, 115 mg/m^2 /d (33-115), 37 pts): Neutropenia*; also recorded: diarrhea; also recorded: nausea; also recorded: vomiting; also recorded: alopecia
partial responses (PR) ([6]; Clavel et al, Breast, 37 pts): 1 PR
partial responses (PR) ([6]; Clavel et al, Mesothelioma, 37 pts): 1 PR
Toxicity (* dose limiting) ([6]; Culine et al, 90 min Q21 days, 150 mg/m^2 /wk (50-150), 59 pts): Neutropenia*; also recorded: diarrhea*; also recorded: vomiting; also recorded: alopecia; also recorded: fatigue; also recorded: stomatitis
partial responses (PR) ([6]; Culine et al, cervix, 59 pts): 1 PR
partial responses (PR) ([6]; Culine et al, esophagus, 59 pts): 1 PR
partial responses (PR) ([6]; Culine et al, ovarian, 59 pts): 1 PR
partial responses (PR) ([6]; Culine et al, renal, 59 pts): 1 PR
Toxicity (* dose limiting) ([6]; Negoro et al, 30 min infusion weekly, 100 mg/m^2 (50-150), 17 pts): Neutropenia* and Diarrhea* and N/V and alopecia and liver
partial responses (PR) ([6]; Negoro et al, NS CLC, 17 pts): 2 PRs
responses by tumor type ([6]; Ohe et al, 36 pts): None
Toxicity (* dose limiting) ([6]; Ohe et al, 120 hr CI Q3 wks, 40 mg/m^2 /d (5-40), 36 pts): Diarrhea*; also recorded: nausea; also recorded: vomiting; also recorded: thrombocytopenia; also recorded: anemia; also recorded: liver
major reported, dose-limiting toxicities ([6]; Phase I and Phase II trials): Neutropenia and diarrhea
partial responses (PR) ([6]; Rothenberg et al, Colon Ca, 32 pts): 2 PRs
Toxicity (* dose limiting) ([6]; Rothenberg et al, QWx4 Q42 days, 180 mg/m^2 /wk (50-180), 32 pts): Diarrhea*; also recorded: Neutropenia; also recorded: nausea; also recorded: vomiting; also recorded: alopecia
Toxicity (* dose limiting) ([6]; Rowinsky et al, 90 min infusion Q21 day, 240 mg/m^2 (100-345), 32 pts): Neutropenia* and vomiting and diarrhea and abd. and flushing
partial responses (PR) ([6]; Rowinsky et al, Cervix Ca, 32 pts): 1 PR
partial responses (PR) ([6]; Rowinsky et al, Colon Cancer, 32 pts): 1 PR
dependence of tumor sensitivity on ability to produce HECPT [7]: independent of their ability to produce HECPT
plasma concentration of HECPT after CPT-11 compared to after HECPT [8]: maintained longer after CPT-11 administration than after treatment with HECPT
partial responses ([9]; Fukuoka et al, untreated non small cell lung cancer, 100 mg/m^2): 23/72
Response Rate [9, 10]: 47%
partial responses [9, 10]: 7/15
Response Rate [9, 11]: 33.3%
complete responses [9, 11]: 2 CRs
partial responses [9, 11]: 7 PRs
N/V ([9]; Negoro et al, small cell lung cancer): 61.5%
Gastrointestinal toxicity ([9]; Ohno et al, 62 pts): 76%
Reported Toxicities ([9]; Ohno et al, 62 pts): Thrombocytopenia
Response Rate ([9]; Ohno et al, leukemia/lymphoma, 20 mg/m^2 bid x7): 25 % RR
partial response rate ([9]; Ohno et al, leukemia/lymphoma, 40 mg/m^2 Q0x5): 34 % PR
Response ([9]; Ohno et al, leukemia/lymphoma, 200 mg Q3): No resp.
N/V ([9]; Shimada et al, 17 pts): 35%
Response Rate [9, 12]: 46%
partial responses [9, 12]: 6/17
Response Rate (RR) [9, 13]: 23.6%
complete responses [9, 13]: SCR
partial responses [9, 13]: 8 PR
N/V ([9]; Takeuchi et al, cervical cancer): 51%
Alopecia ([9]; in vivo): 38.1%
Diarrhea ([9]; in vivo): 39.1%
alopecia ([9]; in vivo): 40.0%
pneumonitis ([9]; in vivo): 12.5
conversion of CPT-11 to HECPT ([3]; 5-day continuous intravenous infusion): saturable process
Fractional amount of lactone species, CpMax based ([4]; single dose I.V., 50 mg/m^2): 0.51
Fractional amount of lactone species, CpMax based ([4]; single dose I.V., 80 mg/m^2): 0.44
Fractional amount of lactone species, CpMax based ([4]; single dose I.V., 100 mg/m^2): 0.53
Fractional amount of lactone species, CpMax based ([4]; single dose I.V., 125 mg/m^2): 0.55
Fractional amount of lactone species, CpMax based ([4]; single dose I.V., 150 mg/m^2): 0.42
Fractional amount of lactone species, CpMax based ([4]; single dose I.V., 180 mg/m^2): 0.42
overall fractional concentration of the lactone species over dose range ([4]; single dose I.V.): fairly constant
